Values quoted from earlier work, collected in patent US7204996B2, “Method of cancer treatment” (Board of Regents, The University of Texas System, priority 1999, dated 2007).

What was measured:
[1] = system: MDR overexpressing HL-60 cells; settings: for resistance index decrease on coincubation with verapamil: in the presence of verapamil

Structure (SMILES): COc1cccc2c1C(=O)c1c(O)c3c(c(O)c1C2=O)C[C@@](O)(C(=O)CO)C[C@@H]3O[C@H]1C[C@H](N)[C@H](O)[C@H](C)O1 [doxorubicin, reference compound]
- resistance index decrease on coincubation with verapamil [1]: 4.5 fold

Structure (SMILES): C[C@@H]1O[C@@H](O[C@H]2C[C@](O)(C(=O)CO)Cc3c(O)c4c(c(O)c32)C(=O)c2ccccc2C4=O)[C@H](I)[C@H](O)[C@H]1O [Annamycin, (7S,9S)-4-demethoxy-7-O-(2,6-dideoxy-2-iodo-alphamannopryanosyl) adriamycinone]
- solubility in water solutions: completely insoluble
- cytotoxicity ([1]; MDR overexpressing HL-60 cells): cytotoxic
- resistance index ([1]; compared with idarubicin and doxorubicin): lower than that of idarubicin and doxorubicin
- resistance index decrease on coincubation with verapamil [1]: did not change

Structure (SMILES): CC(=O)[C@]1(O)Cc2c(O)c3c(c(O)c2[C@@H](O[C@H]2C[C@H](N)[C@H](O)[C@H](C)O2)C1)C(=O)c1ccccc1C3=O [idarubicin, reference compound]
- resistance index decrease on coincubation with verapamil [1]: 2 fold
